PubChem BioAssay (NCI)
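Interpolation was linear, between the two tested concentrations surrounding the appropriate level; five concentrations were tested over 48 hours in 96-well plates. TGI is the concentration that stops growth completely.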

How the values were obtained:
Assay in all cases: inhibition of tumour cell growth, NCI panel, 48 h
MDA-MB-435 = tested on: MDA-MB-435
MDA-MB-231 breast = tested on: MDA-MB-231 breast
COLO 205 colon = tested on: COLO 205 colon
NCI-H522 lung = tested on: NCI-H522 lung
HOP-92 NSCLC = tested on: HOP-92 NSCLC
HT29 colon = tested on: HT29 colon
UACC-257 melanoma = tested on: UACC-257 melanoma
SK-MEL-5 melanoma = tested on: SK-MEL-5 melanoma
A498 renal = tested on: A498 renal
NCI/ADR-RES ovarian = tested on: NCI/ADR-RES ovarian
ACHN renal = tested on: ACHN renal
MCF7 breast = tested on: MCF7 breast
HL-60(TB) leukemia = tested on: HL-60(TB) leukemia
CCRF-CEM leukemia = tested on: CCRF-CEM leukemia
RPMI-8226 leukemia = tested on: RPMI-8226 leukemia
SK-OV-3 ovarian = tested on: SK-OV-3 ovarian
LOX IMVI melanoma = tested on: LOX IMVI melanoma
HCC-2998 colon = tested on: HCC-2998 colon
HCT-116 colon = tested on: HCT-116 colon
T-47D breast = tested on: T-47D breast

| SMILES | TGI (MDA-MB-435) | TGI (MDA-MB-231 breast) | TGI (COLO 205 colon) | TGI (NCI-H522 lung) | TGI (HOP-92 NSCLC) | TGI (HT29 colon) | TGI (UACC-257 melanoma) | TGI (SK-MEL-5 melanoma) | TGI (A498 renal) | TGI (NCI/ADR-RES ovarian) | TGI (ACHN renal) | TGI (MCF7 breast) | TGI (HL-60(TB) leukemia) | TGI (CCRF-CEM leukemia) | TGI (RPMI-8226 leukemia) | TGI (SK-OV-3 ovarian) | TGI (LOX IMVI melanoma) | TGI (HCC-2998 colon) | TGI (HCT-116 colon) | TGI (T-47D breast) |
| --- | --- | --- | --- | --- | --- | --- | --- | --- | --- | --- | --- | --- | --- | --- | --- | --- | --- | --- | --- | --- |
| COc1cc(C2SCC(=O)N2c2ccccc2Cl)cc(OC)c1OC (configuration not stated) | 64.8 µM | > 100 µM | > 100 µM | > 100 µM | > 100 µM | > 100 µM | > 100 µM | > 100 µM | > 100 µM | > 100 µM | > 100 µM | > 100 µM | > 100 µM | > 100 µM | > 100 µM | > 100 µM | > 100 µM | > 100 µM | > 100 µM |  |
| O=C1c2ccccc2C(O)(C(=O)O)C1(O)CC=C(Cl)Cl (configuration not stated) |  |  | > 125 µM | > 125 µM | > 117 µM | > 125 µM | > 125 µM | > 125 µM | > 125 µM | > 125 µM |  | > 125 µM | > 125 µM | > 125 µM | > 125 µM | > 125 µM | > 125 µM | > 125 µM | > 125 µM |  |
| O=C1CC(CC(O)[C@@H]2CCCC[C@@H]2O)CC(=O)N1c1ccccc1 (some centres not stated) | > 100 µM | > 100 µM |  | > 100 µM | > 100 µM | > 100 µM | > 100 µM | > 100 µM | > 100 µM | > 100 µM | > 100 µM | > 100 µM | > 100 µM | > 100 µM | > 100 µM |  | > 100 µM | > 100 µM | > 100 µM |  |
| O=C(O)c1ccc(P(=O)(O)c2ccc(C(=O)O)cc2Br)c(Br)c1 | > 100 µM | > 100 µM | > 100 µM | > 100 µM | > 100 µM |  | > 100 µM | > 100 µM |  |  |  | > 100 µM | > 100 µM |  | > 100 µM | > 100 µM | > 100 µM | > 100 µM | > 100 µM |  |
| COc1ccc(Nc2nnc(CCCCCCCCc3nnc(Nc4ccc(OC)cc4)o3)o2)cc1 | > 100 µM | > 100 µM | > 100 µM | > 100 µM | > 100 µM | > 100 µM | > 100 µM | > 100 µM | > 100 µM | > 100 µM | > 100 µM | > 100 µM | > 100 µM | > 100 µM |  | > 100 µM | > 100 µM | > 100 µM | > 100 µM |  |
| COc1cc2c[n+](C)c3c4cc5c(cc4ccc3c2cc1OC)OCO5 | > 100 µM | > 100 µM | 4.48 µM | 2.06 µM | 6.39 µM | 4.6 µM | > 59.8 µM | 23.2 µM | 2.67 µM | > 100 µM | > 100 µM |  | 22.5 µM | 19.5 µM | 23.5 µM | 5.64 µM | 24.8 µM | 7.52 µM | 18.9 µM |  |
| O=c1[nH]n(Cc2ccccc2Cl)c2ccc([N+](=O)[O-])cc12 | > 100 µM | > 100 µM | > 100 µM | > 100 µM | 52 µM | > 100 µM | > 100 µM | 52.8 µM | 64.3 µM | > 100 µM | > 100 µM |  | > 100 µM | > 100 µM | > 100 µM |  | > 100 µM | > 100 µM | > 100 µM |  |
| Ic1ncnc2c1ncn2C1CCCO1 (configuration not stated) |  |  | > 100 µM | > 100 µM | > 100 µM | > 100 µM | > 100 µM | > 100 µM | > 100 µM |  | > 100 µM |  | > 100 µM | > 100 µM | > 100 µM | > 100 µM | > 100 µM | > 100 µM | > 100 µM |  |
| O=C(Nc1ccc(Cl)cc1)C(=O)C(C(=O)c1ccccc1-c1ccccc1)C1OC(=O)c2ccccc21 (configuration not stated) |  |  | 44.4 µM | 28.3 µM | 65.6 µM | 58.6 µM | 61.3 µM | 32 µM | 38.7 µM |  | 92.4 µM |  | 53.5 µM | 58 µM | > 100 µM | 64.3 µM | 36 µM | 33.8 µM | 32.1 µM |  |
| CCC(Sc1cc(Cl)c(C)cc1S(=O)(=O)Nc1nc(N)nc(N(C)C)n1)C(=O)O (configuration not stated) |  |  | > 10 µM | > 10 µM | > 10 µM | > 10 µM | > 10 µM | > 10 µM | > 10 µM | > 10 µM | > 10 µM | > 10 µM | > 10 µM | > 10 µM | > 10 µM | > 10 µM | > 10 µM | > 10 µM | > 10 µM | > 10 µM |
| Cc1ccc2nc(CN3CCCC(O)C3)cc(=O)n2c1 (configuration not stated) | > 100 µM | > 100 µM | > 100 µM | > 100 µM | > 100 µM | > 100 µM | > 100 µM |  |  | > 100 µM | > 100 µM | > 100 µM | > 100 µM | > 100 µM | > 100 µM | > 100 µM | > 100 µM | > 100 µM | > 100 µM |  |
| COC(=O)C(C)NP(=O)(N1CC1)N1CC1 (configuration not stated) |  |  | > 100 µM | > 100 µM |  | > 100 µM | > 100 µM | > 100 µM | > 100 µM |  | > 100 µM |  | > 100 µM | > 100 µM | > 100 µM | > 100 µM | > 100 µM | > 100 µM |  |  |
